For assay [1], the target named is Pim-1 (Homo sapiens (Human), UniProt P11309). The assay can be described thus: Pim enzyme assay (HTRF, phosphorylation of biotinylated-BAD (S112) peptide), Pim-1. The assay is classed as biochemical. A digest of the protocol:
(§1)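 Full-length human Pim-1 or Pim-2 with an N-terminal His6 tag, expressed in Sf9 or E. coli and purified as monomer. HTRF read-out: biotinylated BAD (S112) peptide phosphorylation detected with streptavidin-APC plus Eu-anti-phospho-BAD(S112) antibody, excitation 337 nm, emission 665 nm.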
For orientation: Time-resolved FRET reads energy transfer from a long-lived donor to a nearby acceptor.

Assay [2] deals with Pim-2 (Homo sapiens (Human), UniProt Q9P1W9). The assay can be described thus: Pim enzyme assay (HTRF, phosphorylation of biotinylated-BAD (S112) peptide), Pim-2. The assay is classed as biochemical. The method in brief: as §1
Assay [3] relates to KMS-12-BM myeloma cell line. The assay can be described thus: Pim cell assay: phospho-BAD (S112) and total BAD in KMS-12-BM cells. The assay is classed as cell-based. Particulars: 1 hour and 50 minutes incubation. As to the method:
The KMS-12-BM myeloma cell line was used to determine the in vitro cellular inhibition of Pim kinases. Disruption of Pim signaling by Pim inhibitors was determined by measuring the levels of phospho-BAD (S112) and total BAD. […] The cells were then incubated overnight at 37° C., 5% CO2. […] In addition to the 10-point dosing curve of the test compound, DMSO alone was run as a control. This dilution in DMSO was then diluted again into cell growth medium. Aliquots (11.1 uL) of the compound diluted in growth medium were then transferred to the appropriate wells of the 96-well plates containing cells to yield a final DMSO concentration of 0.3%. The cell plates were then incubated with compound for 1 hour and 50 minutes at 37° C., 5% CO2. After the 1 hour and 50 min incubation, the cell plates were spun at 1000 RPM for 10 minutes and the compound-containing medium was removed. […] The cell plates containing lysis buffer were then immediately stored at −70° C. These prepared lysates were then assayed for phospho-(S112) and total-BAD according to the manufacturer's protocol (Meso Scale Diagnostics, Cat # K15103D-3). The plates were read on the MSD Sector Imager 6000, and results were calculated according to the assay protocol: ((% Phosphoprotein=((2×Phospho signal)/(Phospho signal+Total signal))×100)).

Where [4] appears, read: full length recombinant Pim-1, biotinylated-BAD (S112) peptide, HTRF, 96-well, read-out: Pim-1 IC50 IP.
[5] abbreviates: full length recombinant Pim-2, biotinylated-BAD (S112) peptide, HTRF, 96-well, read-out: Pim-2 IC50 IP.
Setting [6] is: tris(2,2,2-trifluoroacetate), read-out: KMS-12-BM IC50 IP.
Setting [7] is: Homo sapiens, KMS-12-BM, read-out: KMS-12-BM IC50 IP.
The mark [8] stands for this setting: full length recombinant Pim-1, biotinylated-BAD (S112) peptide, HTRF, read-out: Pim_1_IC50.
Where [9] appears, read: full length recombinant Pim-2, biotinylated-BAD (S112) peptide, HTRF, read-out: Pim2_IC50.
Where [10] appears, read: Homo sapiens, KMS-12-BM, read-out: KMS12_Cell_IC50.

Where two headings read alike, the source gives them in different places.

Sequence of Pim-2 (Q9P1W9 whole entry): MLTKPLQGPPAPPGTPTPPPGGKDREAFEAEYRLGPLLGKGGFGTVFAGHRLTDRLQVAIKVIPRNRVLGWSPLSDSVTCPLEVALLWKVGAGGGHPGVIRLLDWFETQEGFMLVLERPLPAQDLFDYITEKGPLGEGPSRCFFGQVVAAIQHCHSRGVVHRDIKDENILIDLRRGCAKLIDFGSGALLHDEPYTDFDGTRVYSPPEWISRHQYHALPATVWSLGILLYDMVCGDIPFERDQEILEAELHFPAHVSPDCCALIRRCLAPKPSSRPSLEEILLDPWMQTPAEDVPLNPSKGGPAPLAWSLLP
Sequence of Pim-1 (P11309 whole entry): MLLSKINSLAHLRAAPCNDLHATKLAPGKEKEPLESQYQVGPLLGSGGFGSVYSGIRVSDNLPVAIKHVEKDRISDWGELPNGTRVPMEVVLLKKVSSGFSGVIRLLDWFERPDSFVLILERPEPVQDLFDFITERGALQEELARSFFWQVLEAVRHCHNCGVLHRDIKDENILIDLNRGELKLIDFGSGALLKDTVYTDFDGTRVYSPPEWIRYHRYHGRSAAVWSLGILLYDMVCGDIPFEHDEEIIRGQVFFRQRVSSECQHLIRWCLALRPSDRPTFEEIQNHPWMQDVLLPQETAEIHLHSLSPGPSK

For the compound `C[C@@H]1CCN(c2ccncc2Nc2ncc3ccc(-c4c(F)cccc4F)nn23)C[C@H]1N` (single isomer, unassigned) [Example 101, N-(4-((trans)-3-amino-4-methylpiperidin-1-yl)pyridin-3-yl)-2-(2,6-difluorophenyl)imidazo[1,5-b]pyridazin-7-amine tris(2,2,2-trifluoroacetate)], the IC50 came out at 7.6 nM in assay [1] (setting [4]), 32.4 nM in assay [2] (setting [5]) and 6930 nM in assay [3] (setting [6]).
Consider `C[C@@H]1C[C@H](N)CN(c2ccncc2Nc2ncc3ccc(-c4cc(C(=O)NC5CC5)ccc4F)nn23)C1` [Example 72, 3-(7-((4-((3S,5R)-3-amino-5-methyl-1-piperidinyl)-3-pyridinyl)amino)imidazo[1,5-b]pyridazin-2-yl)-N-cyclopropyl-4-fluorobenzamide], for which the IC50 in assay [1] (setting [4]) is 0.1 nM; in assay [2] (setting [5]) it was 0.1 nM; in assay [3] (setting [7]), 86.4 nM.
Turning to `N[C@H]1CCCN(c2ccncc2Nc2ncc3ccc(-c4ccc(Cl)cc4Cl)nn23)C1` [Example 11, N-(4-((3S)-3-amino-1-piperidinyl)-3-pyridinyl)-2-(2,4-dichlorophenyl)imidazo[1,5-b]pyridazin-7-amine], the figures for the IC50 in assay [1] (setting [8]), in assay [2] (setting [9]) and in assay [3] (setting [10]) were 2 nM, 11 nM and 5010 nM, respectively.
As to `Fc1cccc(F)c1-c1ccc2cnc(Nc3cnccc3N3CCNCC3)n2n1` [Example 2, 2-(2,6-difluorophenyl)-N-(4-(1-piperazinyl)-3-pyridinyl)imidazo[1,5-b]pyridazin-7-amine], the IC50 was 14 nM in assay [1] (setting [8]), 126 nM in assay [2] (setting [9]) and above 31000 nM in assay [3] (setting [10]).
Consider `Clc1ccccc1-c1ccc2cnc(Nc3cnccc3O[C@H]3CCCNC3)n2n1` [Example 16, 2-(2-chlorophenyl)-N-(4-((3S)-3-piperidinyloxy)-3-pyridinyl)imidazo[1,5-b]pyridazin-7-amine bis(2,2,2-trifluoroacetate)], for which the IC50 in assay [1] (setting [8]) is 44 nM; in assay [2] (setting [9]) it was 298 nM; in assay [3] (setting [10]) it was above 1000 nM.
As to `N[C@H]1CCCN(c2ccncc2Nc2ncc3ccc(-c4ccccn4)nn23)C1` [Example 64, (S)-N-(4-(3-aminopiperidin-1-yl)pyridin-3-yl)-2-(pyridin-2-yl)imidazo[1,5-b]pyridazin-7-amine], the IC50 was found to be 1.5 nM in assay [1] (setting [4]), 6.4 nM in assay [2] (setting [5]) and 1760 nM in assay [3] (setting [7]).
As for `C[C@@H]1C[C@H](N)CN(c2ccncc2Nc2ncc3ccc(-c4ccccc4F)nn23)C1` (single isomer, unassigned) [Example 46, N-(4-((cis)-3-amino-5-methylpiperidin-1-yl)pyridin-3-yl)-2-(2-fluorophenyl)imidazo[1,5-b]pyridazin-7-amine tris(2,2,2-trifluoroacetate)], the IC50 is below 0.1 nM in assay [1] (setting [4]), 0.1 nM in assay [2] (setting [5]) and 52.1 nM in assay [3] (setting [6]).
Turning to `N[C@H]1CCCN(c2ccncc2Nc2ncc3ccc(-c4ccccc4Cl)nn23)C1` [Example 4, N-(4-((3S)-3-amino-1-piperidinyl)-3-pyridinyl)-2-(2-chlorophenyl)imidazo[1,5-b]pyridazin-7-amine], the IC50 was 0.9 nM in assay [1] (setting [8]), 3 nM in assay [2] (setting [9]) and 2670 nM in assay [3] (setting [10]).
For `C[C@@H]1C[C@H](N)CN(c2ccncc2Nc2ncc3ccc(-c4nccs4)nn23)C1` [Example 62, N-(4-((3S,5R)-3-amino-5-methylpiperidin-1-yl)pyridin-3-yl)-2-(thiazol-2-yl)imidazo[1,5-b]pyridazin-7-amine bis(2,2,2-trifluoroacetate)], the figures for the IC50 in assay [1] (setting [4]), in assay [2] (read-out: Pim-2 IC50 IP) and in assay [3] (setting [7]) were 0.3 nM, 0.4 nM and 183 nM, respectively.
`Cc1cc(N)cc(-c2ccncc2Nc2ncc3ccc(-c4c(F)cccc4F)nn23)c1` [Example 42, N-(4-(3-amino-5-methylphenyl)-3-pyridinyl)-2-(2,6-difluorophenyl)imidazo[1,5-b]pyridazin-7-amine]: the IC50 was 8.6 nM in assay [1] (setting [4]), 34.4 nM in assay [2] (setting [5]) and 9860 nM in assay [3] (setting [7]).
With `C[C@H]1CN(c2ccncc2Nc2ncc3ccc(-c4nccs4)nn23)C[C@@H](N)[C@@H]1O` [Example 21, (3R,4R,5S)-3-amino-5-methyl-1-(3-((2-(1,3-thiazol-2-yl)imidazo[1,5-b]pyridazin-7-yl)amino)-4-pyridinyl)-4-piperidinol], the IC50 in assay [1] (setting [8]) turned out to be 0.3 nM; in assay [2] (setting [9]), 0.6 nM; in assay [3] (setting [10]), 209 nM.
As to `CS(=O)(=O)c1ccc(-c2ccc3cnc(Nc4cnccc4N4CCC[C@H](N)C4)n3n2)c(F)c1` [Example 22, N-(4-((3S)-3-amino-1-piperidinyl)-3-pyridinyl)-2-(2-fluoro-4-(methylsulfonyl)phenyl)imidazo[1,5-b]pyridazin-7-amine], the IC50 in assay [1] (setting [8]) is 1.2 nM; in assay [2] (setting [9]), 9.1 nM; in assay [3] (setting [10]) it was 2390 nM.
Turning to `C[C@@H]1C[C@H](N)CN(c2ccncc2Nc2nnc3ccc(-c4c(F)cccc4F)nn23)C1` [Example 90, N-(4-((3S,5R)-3-amino-5-methylpiperidin-1-yl)pyridin-3-yl)-6-(2,6-difluorophenyl)-[1,2,4]triazolo[4,3-b]pyridazin-3-amine bis(2,2,2-trifluoroacetate)], the IC50 amounted to 1 nM in assay [1] (setting [4]), 3.9 nM in assay [2] (read-out: Pim-2 IC50 IP) and 509 nM in assay [3] (setting [7]).
Regarding `N[C@H]1CCCN(c2ccncc2Nc2ncc3ccc(-c4nccs4)nn23)C1` [Example 8, N-(4-((3S)-3-amino-1-piperidinyl)-3-pyridinyl)-2-(1,3-thiazol-2-yl)imidazo[1,5-b]pyridazin-7-amine], the IC50 is 1 nM in assay [1] (setting [8]), 3 nM in assay [2] (setting [9]) and 726 nM in assay [3] (setting [10]).
Turning to `N[C@H]1CCCN(c2ccncc2Nc2nnc3ccc(-c4ncccc4F)nn23)C1` [Example 91, N-(4-((3S)-3-amino-1-piperidinyl)-3-pyridinyl)-6-(3-fluoro-2-pyridinyl)[1,2,4]triazolo[4,3-b]pyridazin-3-amine bis(2,2,2-trifluoroacetate)], the values for the IC50 in assay [1] (setting [4]), in assay [2] (read-out: Pim-2 IC50 IP) and in assay [3] (setting [7]) were 5.6 nM, 30.5 nM and 11300 nM, respectively.
For `C[C@H]1CN(c2ccncc2Nc2ncc3ccc(-c4ccc(S(C)(=O)=O)cc4F)nn23)C[C@@H](N)[C@@H]1O` [Example 23, (3R,4R,5S)-3-amino-1-(3-((2-(2-fluoro-4-(methylsulfonyl)phenyl)imidazo[1,5-b]pyridazin-7-yl)amino)-4-pyridinyl)-5-methyl-4-piperidinol], the values for the IC50 in assay [1] (setting [8]), in assay [2] (setting [9]) and in assay [3] (setting [10]) were 0.1 nM, 0.5 nM and 1400 nM, respectively.
For `O[C@H]1CCN(c2ccncc2Nc2ncc3ccc(-c4c(F)cccc4F)nn23)C[C@@H]1O` (mixture of isomers) [Example 25, (3S,4S)-1-(3-((2-(2,6-difluorophenyl)imidazo[1,5-b]pyridazin-7-yl)amino)-4-pyridinyl)-3,4-piperidinediol and (3R,4R)-1-(3-((2-(2,6-difluorophenyl)imidazo[1,5-b]pyridazin-7-yl)amino)-4-pyridinyl)-3,4-piperidinediol (1/1)], the IC50 came to 2 nM in assay [1] (read-out: Pim_1_IC50), 8 nM in assay [2] (read-out: Pim2_IC50) and 777 nM in assay [3] (read-out: KMS12_Cell_IC50).
Turning to `N[C@H]1CCCN(c2ccncc2Nc2ncc3ccc(-c4cc(C(=O)NC5CC5)ccc4F)nn23)C1` [Example 74, 3-(7-((4-((3S)-3-amino-1-piperidinyl)-3-pyridinyl)amino)imidazo[1,5-b]pyridazin-2-yl)-N-cyclopropyl-4-fluorobenzamide], the IC50 in assay [1] (setting [4]) worked out at 0.2 nM; in assay [2] (setting [5]), 0.5 nM; in assay [3] (setting [7]), 185 nM.
For the compound `C[C@@H]1C[C@H](N)CN(c2ccncc2Nc2ncc3ccc(-c4ccccn4)nn23)C1` (relative stereo) [Example 63, N-(4-((cis)-3-amino-5-methylpiperidin-1-yl)pyridin-3-yl)-2-(pyridin-2-yl)imidazo[1,5-b]pyridazin-7-amine], the values for the IC50 in assay [1] (setting [4]), in assay [2] (setting [5]) and in assay [3] (setting [7]) were 0.3 nM, 1.3 nM and 235 nM, respectively.
On the same counts, the results for `N[C@H]1C[C@@H](C(F)(F)F)CN(c2ccncc2Nc2ncc3ccc(-c4c(F)cccc4F)nn23)C1` (racemic) [Example 60, rac-N-(4-((cis)-3-amino-5-(trifluoromethyl)piperidin-1-yl)pyridin-3-yl)-2-(2,6-difluorophenyl)imidazo[1,5-b]pyridazin-7-amine bis(2,2,2-trifluoroacetate)] are 0.1 nM, 0.3 nM and 116 nM.

These data come from US9187486B2 (AMGEN INC., priority 2011, dated 2015).
